According to US6461997B1, “Triazole sulfones having herbicidal activity” (Monsanto Technology LLC, priority 1999, dated 2002):

Tests used:
[1] = test system: BRAPP (broadleaf signalgrass); test: Pre-emergence herbicidal activity, warm season; assay type: in vivo, Brachiaria platyphylla; settings: GR80 = lowest tested rate (300, 100, 30, 10 g/ha) with 80% or greater inhibition; approx. 14 days after treating; 30/21° C.
In short: (§1)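 Activity is expressed as the rate giving 80% inhibition, with 300, 100, 30 and 10 g/ha typically tested. An asterisk marks activity short of 80% at the top rate. Warm-season grasses were held at 30/21 °C; cool-season blackgrass and wild buckwheat at 18/13 °C; scoring at about 14 days.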

POLCO (wild buckwheat) = test: Pre-emergence herbicidal activity, cool season; assay type: in vivo, Polygonum convolvulus; settings: lowest tested rate with 80% or greater inhibition; rates 300, 100, 30, 10 g/ha; about 14 days
In short: (§2)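 GR80 values derive from percent inhibition relative to untreated plants, read roughly 14 days after sowing and pre-emergence soil-surface treatment (compound in 50:50 acetone/water; rates typically 10, 30, 100, 300 g/ha). Warm-season weeds grew at 30/21° C day/night, cool-season ones at 18/13° C; an asterisk marks activity without reaching 80% at the highest rate.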

POROL (common purslane) = test: Pre-emergence herbicidal activity, warm season; assay type: in vivo, Portulaca oleracea; settings: GR80 = lowest tested rate (300, 100, 30, 10 g/ha) with 80% or greater inhibition; approx. 14 days after treating; 30/21° C.
In short: as §2

[2] = test system: LAMPU (purple deadnettle); test: Pre-emergence herbicidal activity, cool season; assay type: in vivo, Lamium purpureum; settings: lowest tested rate with 80% or greater inhibition; rates 300, 100, 30, 10 g/ha; about 14 days
In short: as §2

CONAR (field bindweed) = test: Pre-emergence herbicidal activity, warm season; assay type: in vivo, Convolvulus arvensis; settings: GR80 = lowest tested rate (300, 100, 30, 10 g/ha) with 80% or greater inhibition; approx. 14 days after treating; 30/21° C.
Description: (§3) Tables 5 to 8 summarize results of tests conducted as described below to determine the pre-emergence herbicidal activity, in the form of a GR80 value, of illustrative compounds of this invention. […] Compounds of the invention were typically applied at rates of 300, 100, 30, and 10 g/ha. Where herbicidal activity was evident but 80% inhibition was not achieved at the highest rate tested, an asterisk (*) is shown in the following tables.
(§4) The pre-emergence tests were conducted by the following procedure. Topsoil was sieved to pass through a 1.27 cm screen. Fertilizer was added to the topsoil and the mixture was then sterilized by heating. The topsoil mixture was placed in a pot and compacted to a depth of 1.0 to 1.25 cm from the top of the pot. Seeds of each of several monocotyledonous and dicotyledonous annual plant species were placed on top of the soil. Additional soil was subsequently placed over the seeds to level-fill the pot. A known amount of each test compound dissolved or suspended in an appropriate organic solvent was diluted with a 50:50 mix of acetone and water and applied to the surface of the soil. After treatment the plants were placed in a greenhouse where they received 0.64 cm of overhead irrigation. All subsequent watering consisted of a light overhead mist and/or subirrigation as needed for germination and growth. Tables 5 and 6 below relate to warm season plant species which were placed after pre-emergence treatment in a greenhouse with a 30/21° C. day/night temperature regime. Tables 7 and 8 below relates to cool season plant species placed after pre-emergence treatment in a greenhouse or growth chamber with an 18/13° C. day/night temperature regime.
(§5) Approximately 14 days after planting and treating, the plants were observed and herbicidal efficacy recorded as percent inhibition by comparison with untreated plants.
(§6) The plant species usually regarded as weeds which were utilized in the tests are identified in the tables below according to the following legend, in which “d” indicates a dicotyledonous species and “m” a monocotyledonous species. All monocotyledonous species included in the tests herein are grasses.

[3] = test system: CHEAL (common lambsquarters); test: Pre-emergence herbicidal activity, warm season; assay type: in vivo, Chenopodium album; settings: GR80 = lowest tested rate (300, 100, 30, 10 g/ha) with 80% or greater inhibition; approx. 14 days after treating; 30/21° C.
In short: as §2

[4] = test system: GALAP (catchweed bedstraw); test: Pre-emergence herbicidal activity, cool season; assay type: in vivo, Galium aparine; settings: lowest tested rate with 80% or greater inhibition; rates 300, 100, 30, 10 g/ha; about 14 days
In short: as §2

SASKR (russian thistle) = test: Pre-emergence herbicidal activity, cool season; assay type: in vivo, Salsola kali; settings: lowest tested rate with 80% or greater inhibition; rates 300, 100, 30, 10 g/ha; about 14 days
In short: as §2

SINAR (wild mustard) = test: Pre-emergence herbicidal activity, cool season; assay type: in vivo, Sinapis arvensis; settings: lowest tested rate with 80% or greater inhibition; rates 300, 100, 30, 10 g/ha; about 14 days
In short: as §2

[5] = test system: VERPE (creeping speedwell); test: Pre-emergence herbicidal activity, cool season; assay type: in vivo, Veronica persicaria; settings: lowest tested rate with 80% or greater inhibition; rates 300, 100, 30, 10 g/ha; about 14 days
In short: as §2

STEME (common chickweed) = test: Pre-emergence herbicidal activity, cool season; assay type: in vivo, Stellaria media; settings: lowest tested rate with 80% or greater inhibition; rates 300, 100, 30, 10 g/ha; about 14 days
In short: as §2

[6] = test system: PANMI (wild proso millet); test: Pre-emergence herbicidal activity, warm season; assay type: in vivo, Panicum miliaceum; settings: GR80 = lowest tested rate (300, 100, 30, 10 g/ha) with 80% or greater inhibition; approx. 14 days after treating; 30/21° C.
In short: as §2

LOLMG (annual ryegrass) = test: Pre-emergence herbicidal activity, cool season; assay type: in vivo, Lolium multiflorum; settings: GR80 = lowest tested rate (300, 100, 30, 10 g/ha) with 80% or greater inhibition; approx. 14 days after treating; 18/13° C.
In short: as §2

SETVI (green foxtail) = test: Pre-emergence herbicidal activity, cool season; assay type: in vivo, Setaria viridis; settings: GR80 = lowest tested rate (300, 100, 30, 10 g/ha) with 80% or greater inhibition; approx. 14 days after treating; 18/13° C.
In short: as §2

ECHCG (barnyardgrass) = test: Pre-emergence herbicidal activity, warm season; assay type: in vivo, Echinochloa crus-galli; settings: GR80 = lowest tested rate (300, 100, 30, 10 g/ha) with 80% or greater inhibition; approx. 14 days after treating; 30/21° C.
In short: as §1

SOLNI (black nightshade) = test: Pre-emergence herbicidal activity, warm season; assay type: in vivo, Solanum nigrum; settings: GR80 = lowest tested rate (300, 100, 30, 10 g/ha) with 80% or greater inhibition; approx. 14 days after treating; 30/21° C.
In short: as §2

ALOMY (blackgrass) = test: Pre-emergence herbicidal activity, cool season; assay type: in vivo, Alopecurus myosuroides; settings: GR80 = lowest tested rate (300, 100, 30, 10 g/ha) with 80% or greater inhibition; approx. 14 days after treating; 18/13° C.
In short: as §2

[7] = test system: AGSST (creeping bentgrass); test: Pre-emergence herbicidal activity, cool season; assay type: in vivo, Agrostis stolonifera; settings: GR80 = lowest tested rate (300, 100, 30, 10 g/ha) with 80% or greater inhibition; approx. 14 days after treating; 18/13° C.
In short: as §2

[8] = test system: SORHA (johnsongrass (seedling)); test: Pre-emergence herbicidal activity, warm season; assay type: in vivo, Sorghum halepense; settings: GR80 = lowest tested rate (300, 100, 30, 10 g/ha) with 80% or greater inhibition; approx. 14 days after treating; 30/21° C.
In short: as §1

SETFA (giant foxtail) = test: Pre-emergence herbicidal activity, warm season; assay type: in vivo, Setaria faberi; settings: GR80 = lowest tested rate (300, 100, 30, 10 g/ha) with 80% or greater inhibition; approx. 14 days after treating; 30/21° C.
In short: as §1

PANDI (fall panicum) = test: Pre-emergence herbicidal activity, warm season; assay type: in vivo, Panicum dichotomiflorum; settings: GR80 = lowest tested rate (300, 100, 30, 10 g/ha) with 80% or greater inhibition; approx. 14 days after treating; 30/21° C.
Description: as §3, §4, §5, §6

AMARE (redroot pigweed) = test: Pre-emergence herbicidal activity, warm season; assay type: in vivo, Amaranthus retroflexus; settings: GR80 = lowest tested rate (300, 100, 30, 10 g/ha) with 80% or greater inhibition; approx. 14 days after treating; 30/21° C.
In short: as §2

DIGSA (large crabgrass) = test: Pre-emergence herbicidal activity, warm season; assay type: in vivo, Digitaria sanguinalis; settings: GR80 = lowest tested rate (300, 100, 30, 10 g/ha) with 80% or greater inhibition; approx. 14 days after treating; 30/21° C.
In short: as §2

SORVU (shattercane) = test: Pre-emergence herbicidal activity, warm season; assay type: in vivo, Sorghum vulgare; settings: GR80 = lowest tested rate (300, 100, 30, 10 g/ha) with 80% or greater inhibition; approx. 14 days after treating; 30/21° C.
In short: as §1

[9] = test system: CIRAR (canada thistle (seedling)); test: Pre-emergence herbicidal activity, warm season; assay type: in vivo, Cirsium arvense; settings: GR80 = lowest tested rate (300, 100, 30, 10 g/ha) with 80% or greater inhibition; approx. 14 days after treating; 30/21° C.
In short: as §2

ABUTH (velvetleaf) = test: Pre-emergence herbicidal activity, warm season; assay type: in vivo, Abutilon theophrasti; settings: GR80 = lowest tested rate (300, 100, 30, 10 g/ha) with 80% or greater inhibition; approx. 14 days after treating; 30/21° C.
Description: as §3, §4, §5, §6

DATST (jimsonweed) = test: Pre-emergence herbicidal activity, warm season; assay type: in vivo, Datura stramonium; settings: GR80 = lowest tested rate (300, 100, 30, 10 g/ha) with 80% or greater inhibition; approx. 14 days after treating; 30/21° C.
Description: as §3, §4, §5, §6

| SMILES | Pre-emergence activity (GR80) BRAPP [1] [g/ha] | Pre-emergence activity GR80, POLCO (POLCO (wild buckwheat)) | Pre-emergence activity (GR80) POROL (POROL (common purslane)) [g/ha] | Pre-emergence activity GR80, LAMPU [2] | Pre-emergence activity (GR80) CONAR (CONAR (field bindweed)) [g/ha] | Pre-emergence activity (GR80) CHEAL [3] [g/ha] | Pre-emergence activity GR80, GALAP [4] | Pre-emergence activity GR80, SASKR (SASKR (russian thistle)) | Pre-emergence activity GR80, SINAR (SINAR (wild mustard)) | Pre-emergence activity GR80, VERPE [5] | Pre-emergence activity GR80, STEME (STEME (common chickweed)) | Pre-emergence activity (GR80) PANMI [6] [g/ha] | Pre-emergence activity (GR80) SETVI (SETVI (green foxtail)) [g/ha] | Pre-emergence activity (GR80) SOLNI (SOLNI (black nightshade)) [g/ha] | Pre-emergence activity (GR80) ALOMY (ALOMY (blackgrass)) [g/ha] | Pre-emergence activity (GR80) AGSST [7] [g/ha] | Pre-emergence activity (GR80) SORHA [8] [g/ha] | Pre-emergence activity (GR80) SETFA (SETFA (giant foxtail)) [g/ha] | Pre-emergence activity (GR80) AMARE (AMARE (redroot pigweed)) [g/ha] | Pre-emergence activity (GR80) DIGSA (DIGSA (large crabgrass)) [g/ha] | further results |
| --- | --- | --- | --- | --- | --- | --- | --- | --- | --- | --- | --- | --- | --- | --- | --- | --- | --- | --- | --- | --- | --- |
| O=C(N1CCCC1)n1cnc(S(=O)(=O)C(F)F)n1 [Example 24] | 100 | [empty] | 100 | [empty] | 300 | 300 | [empty] | [empty] | [empty] | [empty] | [empty] |  |  |  |  |  |  |  |  |  |  |
| CCSC(F)(F)S(=O)(=O)c1ncn(C(=O)N2CCCC2)n1 [Example 47] | 300 | [empty] | 300 | 30 g/ha | 300 | 300 | 300 g/ha | 100 g/ha | 300 g/ha | 10 g/ha | 30 g/ha | 100 | 300 | 300 | 300 | 30 | 300 | 300 |  |  | Pre-emergence activity (GR80) LOLMG (LOLMG (annual ryegrass)): 300 g/ha; Pre-emergence activity (GR80) ECHCG (ECHCG (barnyardgrass)): 300 g/ha; Pre-emergence activity (GR80) PANDI (PANDI (fall panicum)): 300 g/ha |
| O=C(N1CCCC1)n1cnc(S(=O)(=O)C(F)(F)Cl)n1 [Example 83] | 100 | 300 g/ha | 100 | 100 g/ha | 300 | 100 | 100 g/ha | 300 g/ha | [empty] | [empty] | 300 g/ha | 100 | 300 | 300 | 300 | 100 | 300 | 300 | 300 | 100 | Pre-emergence activity (GR80) SORVU (SORVU (shattercane)): 300 g/ha; Pre-emergence activity (GR80) CIRAR [9]: 100 g/ha |
| CN(Cc1ccccc1)C(=O)n1cnc(S(=O)(=O)C(F)(F)Cl)n1 [Example 92] |  | [empty] |  | [empty] | 300 | 300 | [empty] | [empty] | [empty] | [empty] | [empty] |  |  |  |  |  |  |  |  |  |  |
| CCN(CC)C(=S)n1cnc(S(=O)(=O)C(F)(F)Cl)n1 [Example 94] | 10 | 10 g/ha | 30 | 300 g/ha | 100 | 30 | [empty] | [empty] | [empty] | [empty] | 300 g/ha | 100 |  | 100 | 10 | 300 | 300 | 100 | 10 | 300 | Pre-emergence activity (GR80) ABUTH (ABUTH (velvetleaf)): 100 g/ha; Pre-emergence activity (GR80) SORVU (SORVU (shattercane)): 100 g/ha; Pre-emergence activity (GR80) CIRAR [9]: 30 g/ha; Pre-emergence activity (GR80) DATST (DATST (jimsonweed)): 300 g/ha |
